Assay [1] concerns hPSC cell line. The experiment in a line: Chromatin immunoprecipitation for VDR and SMAD3. The assay is classed as cell-based, human. As to conditions: 100 nM Cal 16 h pretreatment, 1 ng/ml TGFβ 4 h. On the procedure: The hPSC cell line was utilized for chromatin immunoprecipitation, which was described previously (Barish et al., 2010). Briefly, cells were fixed in 1% formaldehyde, and nuclei were isolated and lysed in buffer containing 1% SDS, 10 mM EDTA, 50 mM Tris-HCl pH 8.0, and protease inhibitors, and sheared with a Diagenode Bioruptor to chromatin fragment sizes of 200-1000 base pairs. Chromatin was immunoprecipitated with antibodies to VDR (C-20, Santa Cruz Biotechnology), SMAD3 (Abcam), or rabbit IgG (Santa Cruz Biotechnology).

The subject of assay [2] is primary human CAPSCs. The experiment in a line: Lipid droplet accumulation assay (BODIPY 493/503). The class given is cell-based. The conditions noted are these: 100 nM Cal, 48 h; samples responding / samples tested. On the procedure:
Primary human CAPSCs were seeded onto glass coverslips. After overnight attachment, cells were treated with vehicle (DMSO) or 100 nM calcipotriol for 48 h. Media was aspirated, cells were washed twice with PBS (Gibco) and fixed in 10% buffered formalin at room temperature for 15 minutes. Fixative was removed and cells were washed three times with PBS. Cells were then stained with 1 μg/ml 4,4-Difluoro-1,3,5,7,8-Pentamethyl-4-Bora-3a,4a-Diaza-s-Indacene (BODIPY 493/503, Molecular Probes) for 1 h at room temperature, protected from light. Dye was removed and cells were washed three times with PBS, then mounted using Vectastain mounting medium (Vector Labs). Fluorescence was visualized through the GFP filter on a Leica DM5000B fluorescent microscope and quantification performed using ImageJ.

Assay [3] relates to KPC mice with pancreatic ductal adenocarcinoma. The experiment in a line: KPC mouse PDA study. The class given is in vivo. As to conditions: Cal alone. On the procedure:
KPC mice with pancreatic ductal adenocarcinoma were used based on tumor size, as described previously (Olive et al., 2009). In this study, enrollment was restricted to mice with tumors of a mean diameter between 6 and 9 mm, as determined by high resolution ultrasound imaging. Suitable mice were assigned to a treatment group: gemcitabine; calcipotriol; or gemcitabine and calcipotriol combination. Gemcitabine was administered as a saline solution at 100 mg/kg by intraperitoneal injection, once every three days; when appropriate, a final dose was given two hours prior to euthanasia. Calcipotriol was administered as a saline solution daily at 60 μg/kg by intraperitoneal injection. […]
LC-MS/MS was performed as described by Bapiro et al. (Bapiro et al., 2011). […] Analytes were separated using a gradient of acetonitrile in 10 mM ammonium acetate, pH 10 and detected using a Thermo LTQ-XL mass spectrometer (Thermo Fisher Scientific). Drugs recoveries were normalized using the internal standards and quantified using calibration standards generated from untreated tissue homogenates as described (Bapiro et al., 2011).
Tumors harvested from treated KPC mice were immediately fixed in buffered formalin. […] CD31-positive area was quantified in each section using Nuance software. […] Total tumor cells were quantified per field, as well as total and percent CC3-positive tumor cells per field. […]

Turning to `C=C1/C(=C\C=C2/CCC[C@]3(C)[C@@H]([C@H](C)/C=C/[C@@H](O)C4CC4)CC[C@@H]23)C[C@@H](O)C[C@@H]1O` [Cal, 1α,24-(OH)2-24-cyclopropyl-D3], in assay [1], the “SMAD3 binding in promoter regions of fibrogenic genes (HAS2, COL1A1)” value is “decreasing SMAD3 binding” and the “VDR binding in promoter regions of fibrogenic genes (HAS2, COL1A1)” value was “increased VDR binding”. Also, in assay [2], the “lipid droplet formation, primary patient samples” value is 19/27. Besides, the “efficacy as a single agent” value in assay [3] was “no measurable beneficial effects”.
